{
  "source": "patent US6479068B1",
  "about": "“Therapeutic nutrient regimen for alleviating mucositis, stomatitis and cachexia in oncology patients” (Baxter International Inc., priority 2000, dated 2002)",
  "origin": "cited, not measured here",
  "conditions": "in vivo",
  "data": [
    {"smiles": "[Se]", "note": "[Selenium, selenium]", "values": [
      {"measurement": "absorption", "value": "50-100%"}
    ]}
  ]
}
